Measured values from patent publication US20030124167A1, “Pest controlling” (priority 1999, published 2003).

Test: Miscibility of pheromones with corn oil or triethylcitrate
Format: physicochemical
Source text: Miscibility of the active ingredient and diluents were further examined by forming mixtures of various active ingredients (pheromones) with corn oil or triethylcitrate. The final composition of the mixture produced was 40 vol. % pheromones and 60 vol. % diluent (i.e., corn oil or triethyl citrate). The individual pheromones evaluated were: tomato pinworm, pink bollworm, leafroller, oriental fruitmoth, and coddling moth.

Dissolution in both corn oil and triethyl citrate (pheromone solid at room temperature): dissolved freely
Miscibility in corn oil or triethylcitrate (room temperature, 40 vol. % pheromones/60 vol. % diluent): completely miscible
Compound: C/C=C/C=C/CCCCCCCO [coddling moth]
